The values below come from US20240124460A1, “METHODS AND COMPOSITIONS FOR TARGETED PROTEIN DEGRADATION” (Ranok Therapeutics (Hangzhou) Co. Ltd., priority 2020, published 2024).

The structures appear in SMILES notation.

Experiment [1] addresses T1, HSP90α protein (Homo sapiens, UniProt P07900).
T1 construct: purchased BPS Bioscience #50298
The experiment can be described thus: HSP90α-binding FP (FITC) assay. To be noted: FP competition with FITC-geldanamycin. The method, then: Binding of test compounds to HSP90α protein was measured by fluorescent polarization (FP) using the HSP90α (N-terminal) Assay Kit (BPS Bioscience, #50298), following the manufacturer's instructions, except as noted. Fluorescently labeled HSP90-binding compounds, either the provided FITC-geldanamycin (5 nM final concentration) or RNK04010, a triazolone-based HSP90 binding small molecule labeled with BODIPY through a piperazine-phenyl linker (5 nM final concentration) were employed. A 2.5-fold serial dilution of each test compound ranging from 20 μM to 5.2 nM was assayed for binding to HSP90α. After the final step of adding HSP90α protein to each assay well, plates were mixed by brief shaking, incubated at 25° C. for 120 min for FITC-geldanamycin or 300 min for RNK04010, and fluorescence was measured using a PerkinElmer EnVision Plate Reader.

For experiment [2], the system named is U-87 MG human glioblastoma. The experiment can be described thus: U87 MG CCK-8 proliferation assay. In kind it is cell-based. To be noted: Homo sapiens, U-87 MG, 72 h, U-87 MG cells, read-out: U87MG CCK-8. Summed up:
(§1)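 Lines were maintained according to ATCC guidance. Compounds were then applied as a 3-fold titration from 20 μM to 1.02 nM, and proliferation was measured by CCK-8 absorbance, normalised to DMSO controls minus a no-cell blank.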

Experiment [3] relates to MV-4-11 human acute myeloid leukemia. The experiment can be described thus: MV-4-11 CCK-8 proliferation assay. Type of experiment: cell-based. To be noted: Homo sapiens, MV4-11; MV-4-11 cells, 72 hr. Summed up: as §1
Experiment [4] concerns the target T1, HSP90α protein. The experiment can be described thus: HSP90α-binding FP (BODIPY) assay. Particulars: FP competition with BODIPY-labeled RNK04010. The essentials: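 Fluorescence polarization measured competition with N-terminal human HSP90α, using either FITC-geldanamycin or BODIPY-labelled triazolone RNK04010 as tracer (5 nM final each). Compounds were tested in 2.5-fold dilutions from 20 μM to 5.2 nM, with incubation at 25 °C for 120 min (FITC) or 300 min (BODIPY).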

A further experiment concerns the target MAPK7 (Homo sapiens, UniProt Q13164). The experiment can be described thus: MAPK7 Western blot protein degradation assay in U-87 MG cells. Type of experiment: cell-based. The arrangement: U-87 MG human glioblastoma cells, which express MAPK7; endogenous in cells; host or cells: U-87 MG. Particulars: 48 hr. The method, then:
U-87 MG human glioblastoma cells were seeded in 6- or 12-well tissue culture plates, and after 1 hr, test compounds were added at various concentrations and incubated at 37° C./5% CO2 for 48 hr. Cells were then washed with cold PBS, aspirated and cold RIPA buffer containing a protease/phosphatase inhibitor cocktail was added to lyse cells. After centrifugation, the total protein concentrations of cell lysates were determined using the BCA protein assay. Samples were normalized for equivalent protein concentrations, 5×SDS-PAGE loading buffer added and denatured at 100° C. for 10 min. 20 μl of each sample/well was loaded on a SDS-PAGE gel and electrophoresed for 20 min at 80 V, then 120 V for 1.5 hr. Gels were then electroblotted to nitrocellulose membranes using a wet-transfer method at 250 mA for 2.5 hr. Membranes were incubated with blocking buffer for 1 hr and washed 3 times with TBST for 5 min. Membranes were then incubated with anti-MAPK7 (anti-ERK5; Cell Signaling Technology, #12950) and anti-3-Actin (Cell Signaling Technology, #3700) monoclonal antibodies diluted in blocking buffer at 4° C. overnight per the manufacturer's recommendations. After washing 3 times, blots were incubated with appropriately labeled secondary antibodies for 1 hr at room temperature and washed again. Fluorescence imaging and quantitation was performed using a LI-COR Odyssey. Results was analyzed using GraphPad Prism 7 software.

For the next experiment, the system named is ERBB2. The experiment can be described thus: ERBB2 (HER2) flow cytometry protein degradation assay in BT-474 cells. In kind it is cell-based, human. Particulars: DC50, BT-474 cells, 24 hr. The method, then:
To analyze total ERBB2 expression by flow cytometry, cells were detached with trypsin, washed, counted and treated with 10 μl/10^6 cells PE-conjugated, anti-ERBB2 monoclonal antibody (R&D Systems, #FAB1129P) for 30 min at 25° C. in dark. Cells were then washed, resuspended in 200 μl 1% paraformaldehyde and analyzed by flow cytometry.
% Inhibition=100−(D−B)/(S−B)*100%. • S: Fluorescence intensity of cells with antibody • D: Fluorescence intensity of compound-treated cells with antibody • B: Fluorescence intensity of cells without antibody

Chain of MAPK7 (Q13164 whole entry): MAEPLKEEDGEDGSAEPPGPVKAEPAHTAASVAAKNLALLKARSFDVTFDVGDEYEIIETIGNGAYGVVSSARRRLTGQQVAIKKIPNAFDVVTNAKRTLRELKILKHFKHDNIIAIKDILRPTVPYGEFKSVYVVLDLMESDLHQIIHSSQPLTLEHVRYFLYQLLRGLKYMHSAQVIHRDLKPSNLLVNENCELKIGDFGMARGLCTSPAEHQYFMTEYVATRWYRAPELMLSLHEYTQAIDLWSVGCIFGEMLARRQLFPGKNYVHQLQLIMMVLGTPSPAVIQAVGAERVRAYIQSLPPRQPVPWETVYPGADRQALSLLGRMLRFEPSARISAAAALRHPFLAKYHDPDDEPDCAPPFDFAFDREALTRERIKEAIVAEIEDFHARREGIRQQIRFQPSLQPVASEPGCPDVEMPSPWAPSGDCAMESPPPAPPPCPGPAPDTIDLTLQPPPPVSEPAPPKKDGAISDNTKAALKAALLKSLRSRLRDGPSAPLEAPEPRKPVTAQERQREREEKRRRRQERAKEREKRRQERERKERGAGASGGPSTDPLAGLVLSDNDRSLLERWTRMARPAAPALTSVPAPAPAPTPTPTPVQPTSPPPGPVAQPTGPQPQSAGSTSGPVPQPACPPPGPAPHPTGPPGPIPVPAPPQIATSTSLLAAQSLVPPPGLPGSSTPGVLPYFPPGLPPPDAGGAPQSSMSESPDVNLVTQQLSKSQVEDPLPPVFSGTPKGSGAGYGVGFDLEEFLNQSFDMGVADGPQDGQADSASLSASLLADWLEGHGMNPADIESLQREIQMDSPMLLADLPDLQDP

Turning to `CCOc1cc(N2CCC(C(=O)NCC3CCN(C(=O)C4CCN(Cc5ccc(-n6c(O)nnc6-c6cc(CC)c(O)cc6O)cc5)CC4)C3)CC2)ccc1Nc1ncc2c(n1)N(C)c1ccccc1C(=O)N2C` (centres unmarked) [Compound 012, 1-(4-((5,11-dimethyl-6-oxo-6,11-dihydro-5H-benzo[e]pyrimido[5,4-b][1,4]diazepin-2-yl)amino)-3-ethoxyphenyl)-N-((1-(1-(4-(3-(5-ethyl-2,4-dihydroxyphenyl)-5-hydroxy-4H-1,2,4-triazol-4-yl)benzyl)piperidine-4-carbonyl)pyrrolidin-3-yl)methyl)piperidine-4-carboxamide], the IC50 at HSP90α protein [1] lay in the range of 100 to 1000 nM. In addition, the EC50 in experiment [2] was above 1000 nM; in experiment [3], 100 to 1000 nM.
As for `CCOc1cc(N2CCC(C(=O)NCCOCCOCCOCCOc3ccc(Nc4cc(-n5nc(C(F)(F)F)c6c5CC(C)(C)CC6=O)ccc4C(N)=O)cc3)CC2)ccc1Nc1ncc2c(n1)N(C)c1ccccc1C(=O)N2C` [Compound 132, N-(2-(2-(2-(2-(4-((2-carbamoyl-5-(6,6-dimethyl-4-oxo-3-(trifluoromethyl)-4,5,6,7-tetrahydro-1H-indazol-1-yl)phenyl)amino)phenoxy)ethoxy)ethoxy)ethoxy)ethyl)-1-(4-((5,11-dimethyl-6-oxo-6,11-dihydro-5H-benzo[e]pyrimido[5,4-b][1,4]diazepin-2-yl)amino)-3-ethoxyphenyl)piperidine-4-carboxamide], the 50% inhibitory concentration (IC50) at HSP90α protein [1] was above 1000 nM. Besides, the results for the EC50 in experiment [2] and in experiment [3] were above 1000 nM and 100 to 1000 nM, respectively.
In the case of `CCOc1cc(N2CCC(C(=O)NCCOCCOc3ccc(-n4c(O)nnc4-c4cc(C(C)C)c(O)cc4O)cc3)CC2)ccc1Nc1ncc2c(n1)N(C)c1ccccc1C(=O)N2C` [Compound 015, N-(2-(2-(4-(3-(2,4-dihydroxy-5-isopropylphenyl)-5-hydroxy-4H-1,2,4-triazol-4-yl)phenoxy)ethoxy)ethyl)-1-(4-((5,11-dimethyl-6-oxo-6,11-dihydro-5H-benzo[e]pyrimido[5,4-b][1,4]diazepin-2-yl)amino)-3-ethoxyphenyl)piperidine-4-carboxamide], at HSP90α protein [1], the IC50 lay in the range of 100 to 1000 nM. Also, the values for the EC50 in experiment [2] and in experiment [3] were 100 to 1000 nM and below 100 nM, respectively.
The compound `CCOc1cc(N2CCC(C(=O)N3CCC(CN4CCN(C(=O)c5ccc(-n6c(O)nnc6-c6cc(C(C)C)c(O)cc6O)cc5)CC4)CC3)CC2)ccc1Nc1ncc2c(n1)N(S(C)(=O)=O)c1ccccc1C(=O)N2C` [Compound 127, 2-((4-(4-(4-((4-(4-(3-(2,4-dihydroxy-5-isopropylphenyl)-5-hydroxy-4H-1,2,4-triazol-4-yl)benzoyl)piperazin-1-yl)methyl)piperidine-1-carbonyl)piperidin-1-yl)-2-ethoxyphenyl)amino)-5-methyl-11-(methylsulfonyl)-5,11-dihydro-6H-benzo[e]pyrimido[5,4-b][1,4]diazepin-6-one] gave an IC50 on HSP90α protein [1] of 100 to 1000 nM. The EC50 in experiment [2] and in experiment [3] was 100 to 1000 nM throughout.
`CCOc1cc(N2CCC(C(=O)NCCc3ccc(-n4c(O)nnc4-c4cc(C(C)C)c(O)cc4O)cc3)CC2)ccc1Nc1ncc2c(n1)N(C)c1ccccc1C(=O)N2C` [Compound 008, N-(4-(3-(2,4-dihydroxy-5-isopropylphenyl)-5-hydroxy-4H-1,2,4-triazol-4-yl)phenethyl)-1-(4-((5,11-dimethyl-6-oxo-6,11-dihydro-5H-benzo[e]pyrimido[5,4-b][1,4]diazepin-2-yl)amino)-3-ethoxyphenyl)piperidine-4-carboxamide] showed a 50% inhibitory concentration (IC50) at HSP90α protein [1] of 100 to 1000 nM. The results for the EC50 in experiment [2] and in experiment [3] were 100 to 1000 nM and below 100 nM, respectively.
Consider `CCOc1cc(N2CCC(C(=O)NCc3ccc(-n4c(O)nnc4-c4cc(C(C)C)c(O)cc4O)cc3F)CC2)ccc1Nc1ncc2c(n1)N(C)c1ccccc1C(=O)N2C` [Compound 036, N-(4-(3-(2,4-dihydroxy-5-isopropylphenyl)-5-hydroxy-4H-1,2,4-triazol-4-yl)-2-fluorobenzyl)-1-(4-((5,11-dimethyl-6-oxo-6,11-dihydro-5H-benzo[e]pyrimido[5,4-b][1,4]diazepin-2-yl)amino)-3-ethoxyphenyl)piperidine-4-carboxamide], for which the EC50 in experiment [2] was above 1000 nM. For the same compound, the IC50 at HSP90α protein [4] is 100 to 1000 nM. In addition, on MAPK7, the “MAPK7 degradation (30 nM)” value is reported as “C (< 33% degradation)”, the “MAPK7 degradation (100 nM)” value was “C (< 33% degradation)”, the “MAPK7 degradation (300 nM)” value is “B (33-66% degradation)” and the “MAPK7 degradation (1000 nM)” value is listed as “A (>66% degradation)”. For the same compound, the ERBB2 degradation result with ERBB2 was “B (DC50 = 100-1000 nM)”. The EC50 in experiment [3] is below 100 nM.
Turning to `CCOc1cc(N2CCC(C(=O)N3CCC(CN4CCN(Cc5ccc(-n6c(C(=O)NCC(F)(F)F)nnc6-c6cc(C)c(O)cc6O)cc5)CC4)CC3)CC2)ccc1Nc1ncc2c(n1)N(C)c1ccccc1C(=O)N2C` [Compound 018, 5-(2,4-dihydroxy-5-methylphenyl)-4-(4-((4-((1-(1-(4-((5,11-dimethyl-6-oxo-6,11-dihydro-5H-benzo[e]pyrimido[5,4-b][1,4]diazepin-2-yl)amino)-3-ethoxyphenyl)piperidine-4-carbonyl)piperidin-4-yl)methyl)piperazin-1-yl)methyl)phenyl)-N-(2,2,2-trifluoroethyl)-4H-1,2,4-triazole-3-carboxamide], in experiment [2], the EC50 lay in the range of 100 to 1000 nM. The compound further gave an IC50 on HSP90α protein [4] of 100 to 1000 nM. For the same compound, at MAPK7, the “MAPK7 degradation (30 nM)” value is on record as “C (< 33% degradation)”, the “MAPK7 degradation (100 nM)” value was “C (< 33% degradation)” and the “MAPK7 degradation (1000 nM)” value is reported as “A (>66% degradation)”. Besides, the ERBB2 degradation result with ERBB2 is recorded as “B (DC50 = 100-1000 nM)”. The compound further came in with an EC50 in experiment [3] below 100 nM.
As to `CCOc1cc(N2CCC(C(=O)N3CCC(CN4CCN(Cc5ccc(-n6c(C(=O)NCC(F)(F)F)nnc6-c6cc(CC)c(O)cc6O)cc5)CC4)CC3)CC2)ccc1Nc1ncc2c(n1)N(C)c1ccccc1C(=O)N2C` [Compound 022, 4-(4-((4-((1-(1-(4-((5,11-dimethyl-6-oxo-6,11-dihydro-5H-benzo[e]pyrimido[5,4-b][1,4]diazepin-2-yl)amino)-3-ethoxyphenyl)piperidine-4-carbonyl)piperidin-4-yl)methyl)piperazin-1-yl)methyl)phenyl)-5-(5-ethyl-2,4-dihydroxyphenyl)-N-(2,2,2-trifluoroethyl)-4H-1,2,4-triazole-3-carboxamide], in experiment [2], the EC50 fell in the range of 100 to 1000 nM. The compound also had a 50% inhibitory concentration (IC50) at HSP90α protein [4] of 100 to 1000 nM. At MAPK7, the “MAPK7 degradation (30 nM)” value was “C (< 33% degradation)”, the “MAPK7 degradation (100 nM)” value was “C (< 33% degradation)”, the “MAPK7 degradation (300 nM)” value was “B (33-66% degradation)” and the “MAPK7 degradation (1000 nM)” value is “A (>66% degradation)”. Moreover, the ERBB2 degradation entry in the experiment with ERBB2 was “B (DC50 = 100-1000 nM)”. In experiment [3], the EC50 was below 100 nM.
